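Five compound concentrations were applied to cells in 96-well plates for 48 hours; endpoints were derived by simple linear interpolation of the resulting dose-response curve. GI50 is the concentration that inhibits growth by half. The concentration for full growth arrest is given as TGI.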
Tests used:
Assay in all cases: inhibition of tumour cell growth, NCI panel, 48 h
[1] = test system: COLO 205 colon
[2] = test system: SK-MEL-5 melanoma
[3] = test system: DLD-1 colon
[4] = test system: SF-268 CNS
[5] = test system: CCRF-CEM leukemia
[6] = test system: SNB-78 CNS
[7] = test system: A549 NSCLC
[8] = test system: PC-3 prostate
[9] = test system: DU-145 prostate
[10] = test system: NCI/ADR-RES ovarian

Row | Structure (SMILES) | TGI [1] | TGI [2] | TGI [3] [µM] | TGI [4] | TGI [5] | TGI [6] [µM] | TGI [7] | GI50 [1] | GI50 [2] | GI50 [3] [µM] | GI50 [4] | GI50 [5] | GI50 [6] [µM] | GI50 [7] | GI50 [8] | TGI [8] | GI50 [9] | TGI [9] | GI50 [10] | TGI [10]
1 | O=C(O)CCC(NC(=O)c1ccccc1)C(=O)O (configuration not stated) | > 100 µM | > 100 µM | > 100 | > 100 µM | > 100 µM | > 100 | > 100 µM |  |  |  |  |  |  |  |  |  |  |  |  | 
2 | O=C1C2C=CC(C2)C(c2ccc(O)cc2)N1O (configuration not stated) | > 100 µM | > 100 µM | > 100 | > 100 µM | > 100 µM | > 100 | > 100 µM |  |  |  |  |  |  |  |  |  |  |  |  | 
3 | Cn1ccc2c(C(=O)c3ccccc3)cccc2c1=O | > 100 µM | > 100 µM | > 100 | > 100 µM | > 100 µM |  | > 100 µM |  |  |  |  |  |  |  |  |  |  |  |  | 
4 | COc1ccccc1C1c2cc3c(cc2OC(O)(CO)C1C(=O)O)OCO3 (configuration not stated) (tested in a mixture with another compound) | > 100 µM | > 100 µM | > 100 | > 100 µM | > 100 µM | > 100 | > 100 µM |  |  |  |  |  |  |  |  |  |  |  |  | 
5 | Cc1ccc(NC(=O)C(=O)CC(=O)c2c(C)n([O-])c3ccccc3[n+]2=O)cc1 | 55.2 µM | 78.2 µM |  | 96.2 µM | 49 µM | > 100 | 87.3 µM |  |  |  |  |  |  |  |  |  |  |  |  | 
6 | CN(C)C=[N+]=[N-] | > 100 µM | > 100 µM | > 100 | > 100 µM |  | > 100 | > 100 µM |  |  |  |  |  |  |  |  |  |  |  |  | 
7 | COc1cc2c(cc1OC)[C@H]1C(COC(=O)c3ccccc3)CSC(=Nc3ccccc3)N1CC2 (some centres not stated) | > 100 µM | > 100 µM | > 100 | > 100 µM | > 100 µM | > 100 | > 100 µM |  |  |  |  |  |  |  |  |  |  |  |  | 
8 | NCCN.NCCN.O=C([O-])CCl.O=C([O-])CCl.[Co+3].[O-][Cl+3]([O-])([O-])[O-] | > 100 µM | > 100 µM | > 100 | > 100 µM | > 100 µM | > 100 | > 100 µM | > 100 µM | > 100 µM | > 100 | > 100 µM | > 100 µM | > 100 | > 100 µM |  |  |  |  |  | 
9 | C[N+]1(C)C/C(=C\c2ccccc2)C(=O)/C(=C/c2ccccc2)C1 | > 100 µM | > 100 µM | > 100 | > 100 µM | > 100 µM | > 100 | > 100 µM |  |  |  |  |  |  |  |  |  |  |  |  | 
10 | Cc1c(C(=O)CC(=O)C(=O)Nc2ccc(Cl)cc2)[n+](=O)c2ccccc2n1[O-] | > 100 µM | > 100 µM | > 100 | > 100 µM | > 100 µM | > 100 | > 100 µM |  |  |  |  |  |  |  |  |  |  |  |  | 
11 | O=[N+]([O-])c1cc(C2SCc3nc4ccccc4n32)ccc1Cl (configuration not stated) | 46.6 µM | 28.3 µM | > 100 | 81.1 µM | 85.9 µM | 80.1 | > 100 µM |  |  |  |  |  |  |  |  |  |  |  |  | 
12 | O=C(O)CNS(=O)(=O)c1ccc(NC(=O)CI)cc1 | 96.8 µM | 63 µM | 60.7 | 44.3 µM | 5.85 µM |  | > 100 µM |  |  |  |  |  |  |  |  |  |  |  |  | 
13 | COc1ccc(S(=O)(=O)N/N=C/c2cc(I)cc([N+](=O)[O-])c2O)cc1OC | > 100 µM | 38.3 µM | > 100 |  | > 100 µM | 65.1 | > 100 µM |  |  |  |  |  |  |  |  |  |  |  |  | 
14 | Cc1[nH]c(=O)n2c(C)nnc2c1C(=O)Nc1cc(Cl)cc(Cl)c1 | 79.4 µM | 31 µM | > 100 | > 100 µM | > 100 µM | 69.6 | > 100 µM |  |  |  |  |  |  |  |  |  |  |  |  | 
15 | C[C@]12CCC(=O)C(O)=C1CC[C@@H]1C2CC[C@]2(C)Nc3c(cnn3-c3ccccc3)CC12 (some centres not stated) |  | > 100 µM | > 100 |  | > 100 µM | > 100 | > 100 µM |  |  |  |  |  |  |  |  |  |  |  |  | 
16 | COc1ccc2c(c1)Oc1cc(O)ccc1[C@@H]2c1ccccc1C(=O)NC(C)c1ccccc1 (some centres not stated) | 32.9 µM | 32.2 µM | 39.4 | 52.8 µM | 98.7 µM | 32.6 | 42.5 µM |  |  |  |  |  |  |  |  |  |  |  |  | 
17 | COc1ccc(CC(=O)NCCc2ccc(OC)c(OC)c2)cc1Br | > 100 µM |  | > 100 | > 100 µM | > 100 µM |  | > 100 µM |  |  |  |  |  |  |  |  |  |  |  |  | 
18 | Cc1cc(NS(=O)(=O)c2ccc(NC(=O)c3ccc(Cl)c4c(Nc5ccc(S(=O)(=O)N=C(N)N)cc5)c5ccccc5nc34)cc2)no1 |  |  | > 100 | > 100 µM | 67.2 µM | > 100 |  |  |  |  |  |  |  |  |  |  |  |  |  | 
19 | O=C(NCCCCCCNC(=O)OCCSCCn1cc(C(=O)NC(=O)OCc2ccccc2)c(=O)[nH]c1=O)OCCSCCn1cc(C(=O)NC(=O)OCc2ccccc2)c(=O)[nH]c1=O | > 100 µM | > 100 µM | > 100 |  | > 100 µM | > 100 | > 100 µM |  |  |  |  |  |  |  |  |  |  |  |  | 
20 | Fc1ccccc1C1SCc2nc3ccccc3n21 (configuration not stated) | > 100 µM | 42.9 µM | > 100 | > 100 µM | > 100 µM | > 100 | > 100 µM |  |  |  |  |  |  |  |  |  |  |  |  | 
21 | CC(C)(CN1CCCCC1)C(=O)/C=C/c1ccc(Cl)cc1 | 17.5 µM | 15.1 µM | 22.9 | 12.1 µM | 7 µM | 11.8 | 14.4 µM |  |  |  |  |  |  |  |  |  |  |  |  | 
22 | O=c1nc(NC(c2ccccc2)(c2ccccc2)c2ccccc2)ccn1CCNCCn1ccc(NC(c2ccccc2)(c2ccccc2)c2ccccc2)nc1=O | 35.6 µM | 20.5 µM | > 100 | 32.4 µM | > 100 µM |  | > 100 µM |  |  |  |  |  |  |  |  |  |  |  |  | 
23 | NC1=C(c2nc(-c3ccccc3)cs2)C(c2ccc(Br)cc2)c2c(c3ccccc3oc2=O)O1 (configuration not stated) | > 150 µg/mL | > 150 µg/mL |  | > 150 µg/mL | > 150 µg/mL |  | > 150 µg/mL | 78.1 µg/mL | > 150 µg/mL |  | 89.7 µg/mL | 66.9 µg/mL |  | 46 µg/mL | > 150 µg/mL | > 150 µg/mL | 128 µg/mL | > 150 µg/mL | > 150 µg/mL | > 150 µg/mL
24 | CN(C)CCCN1c2ccccc2C(C)(C)c2ccccc21 | 27.8 µM | 26.2 µM |  | 27.2 µM | 53.5 µM |  | 30.7 µM |  |  |  |  |  |  |  |  | 26.6 µM |  | 31.2 µM |  | 31.8 µM
25 | O=C1CCCC(=O)N1CCc1c[nH]c2ccccc12 |  | > 100 µM | > 100 | > 100 µM | > 100 µM | > 100 | > 100 µM |  |  |  |  |  |  |  |  |  |  |  |  | 
26 | COc1ccc(/C=C(\C#N)n2nnc3ccccc32)cc1 | 1.31 µM | 2.89 µM |  | > 100 µM | > 100 µM |  | > 100 µM | 0.0849 µM | 0.282 µM |  | 2.42 µM | 0.295 µM |  | 0.235 µM | 0.293 µM | > 60 µM | 0.323 µM |  | 0.0604 µM | 28.2 µM

Source: PubChem BioAssay (NCI)
